Laboratory results: US12655189B2, “DOTA binding chimeric antigen receptor for cellular therapy” (THE TRUSTEES OF THE UNIVERSITY OF PENNSYLVANIA, priority 2019, dated 2026)

Columns and labels:
CD20+ cells = test: Lysis of CD20+ cells by DOTA CAR; type: cell-based; settings: SKOV3 cells as antigen negative control
antigen positive cells = test: Target-cell lysis with DOTA-conjugated targeting ligands: linker/metal tuning and blocking (FIGS. 3E, 6B, 9); type: cell-based; settings: 6 nM DOTA-NHS blocking
Protocol: To investigate the ability of DOTA-linked antibodies to trigger effector function in CAR T cells, CAR T cells were incubated with varying amounts of the Her2-specific Herceptin-conjugated DOTA antibody for 16 hours (FIG. 3D). Following this incubation, the supernatant was collected and IFNγ production was measured.
Herceptin antibodies were conjugated to DOTA, various metal ions were chelated, and the ability of DOTA CAR T cells to kill their targets was evaluated.

hC8.2.5 DOTA CAR T cells = test: IFNγ secretion (ELISA) in response to immobilized DOTA or Y-DOTA; type: cell-based, human; settings: immobilized ligand
Protocol: FIGS. 3A-3H illustrate Anti-DOTA Universal Immune Receptor binding and redirected killing. […] DOTA-NHS or Y-DOTA-Sarcosine-Biotin were incubated at various concentrations in a 96-well plate and allowed to passively adhere overnight at 4° C. Plates were washed 2× with PBS and 50,000 immune receptor expressing T cells were added to each well. Plates were incubated at 37° C. and 5% CO2 for 16 hours. Supernatants were harvested and analyzed for IFNγ secretion using a standard IFNγ ELISA kit. […] The average number of DOTA's per antibody was determined using the difference in mass between labeled and unlabeled antibody; in this example there are ˜9.3 DOTAs per antibody.

[1] = tested on: Ramos (CD20+/EGFR−) cells; test: Luciferase lysis assay, Ramos; type: cell-based; settings: 16 hours, 2.5:1 E:T, average of 1 DOTA per antibody
Protocol: Cetuximab and Rituximab were conjugated to Bn-DOTA to create targeting ligands with an average of 1 DOTA molecule per antibody, confirmed by MALDI TOF. MDA468 (CD20-/EGFR+) cells and Ramos (CD20+/EGFR−) cells expressing fLuc were incubated for 16 hours with DOTA CAR T cells at a 2.5:1 E:T ratio and targeting ligands at a range of concentrations. Each condition was run in triplicate. Luminescence was measured after co-culture and used to calculate lysis.

untransduced SKOV3 cells = test: Cell uptake of radiolabeled probes, untransduced control cells; type: cell-based
Protocol: (§1) [^90Y]DOTA-Bn-NH2 and [^90Y]AABD (FIG. 14) were synthesized by incubating 0.6 mCi of Y-90 with DOTA-Bn-NH2 or AABD at 80° C. for 30 min. The radiochemical purity of [^90Y]DOTA-Bn-NH2 and [^90Y]AABD was >95% as analyzed by ITLC (instant thin-layer chromatography). Cell uptake studies were performed with SKOV3 cells transduced with the DOTA CAR, with untransduced SKOV3 cells as a control; excess Y-DOTA-Bn-NH2 (250 nM) was used as a blocking agent.
(§2) Rituxumab-Bn-DOTA-Y was radiolabeled with 1-125 using Pierce Pre-Coated Iodination Tubes. The radiochemical purity of [^125I]Rituximab-Bn-DOTA-Y was >99% based on ITLC (instant thin-layer chromatography). Cell uptake studies with [^125I]Rituximab-Bn-DOTA-Y were performed with SKOV3 cells that were transduced with the DOTA CAR, with untransduced SKOV3 cells as a control. […] This experiment confirmed that Y-DOTA labeled antibodies are capable of binding to cells that express the DOTA CAR, with minimal nonspecific binding.

[2] = tested on: SKOV3 cells transduced with the DOTA CAR; test: Cell uptake of radiolabeled probes, DOTA CAR transduced cells; type: cell-based
Protocol: FIG. 19 is a histogram illustrating [[…]]DOTA-Bn-NH2 and [^90Y]AABD uptake in SKOV3 cells transduced with the DOTA CAR.
FIG. 20 is a graph illustrating [[…]]Rituximab-Bn-DOTA-Y uptake in SKOV3 cells transduced with the DOTA CAR. The cells bind to [^125I]Rituximab-Bn-DOTA-Y rapidly, with maximum uptake at 60 min.
as §1, §2

Rituximab-Bn-DOTA-Y: Rituximab-Bn-DOTA with chelated yttrium
lysis of CD20+ cells (CD20+ cells): capable of lysing CD20+ cells

O=C(O)CN1CCN(CC(=O)O)CCN(CC(=O)ON2C(=O)CCC2=O)CCN(CC(=O)O)CC1 [DOTA-NHS]
effect of free monomeric DOTA on lytic function of Herceptin-NHS-DOTA-Y-CAR T cells (antigen positive cells): blockade of lytic function | concentration at which the IFNγ effect was saturating (hC8.2.5 DOTA CAR T cells): 100 µM | IFNγ production by hC8.2.5 DOTA CAR T cells (hC8.2.5 DOTA CAR T cells; 16 hours): low levels of IFNγ

Rituximab-Bn-DOTA: Rituximab conjugated to Bn-DOTA
lysis of Ramos cells [1]: able to specifically lyse their respective target cell lines | lysis of CD20+ cells (CD20+ cells): specifically lysed

[^125I]Rituximab-Bn-DOTA-Y: Rituximab-Bn-DOTA-Y radiolabeled with I-125
cell uptake in untransduced cells (untransduced SKOV3 cells): minimal to no uptake | time of maximum uptake [2]: 60 min | cell uptake ([2]; at 60 min): 65 % input/10^6 cells
